{"source": "paper PMC10726920", "about": "(Cancer Medicine, 2023)", "key": {"[1]": {"experiment": "Pearson correlation of sapanisertib clearance with toxicity and group variables", "assay_type": "in vivo, human", "conditions": "p > 0.05", "procedure": "Blood samples were obtained on Days 1, 2, and 8 of Cycle 1. […] plasma concentrations were measured using liquid chromatography‐mass spectroscopy. Plasma concentration‐time data were analyzed by standard methods using WinNonlin. Pearson's correlation coefficient (r) was used to assess correlation of group variables. Statistical significance was defined as p < 0.05. Additional details are contained in the Supplementary Method: Data S1.\nStatistical significance was defined as P<0.05."}, "[2]": {"tested_on": "phospho-4EBP1 (direct mTORC1 substrate) in ALL sample", "experiment": "Immunoblotting of pretreatment ALL specimen treated ex vivo 48 h with sapanisertib", "assay_type": "cell-based, human", "conditions": "5 μM Q‐VD‐OPh", "source_text": "FIGURE 2 Effect of MLN0128 concentrations on mTOR‐associated phosphorylation in vitro, ex vivo, and in the context of the present trial. […] (C) Samples harvested from the indicated patients prior to treatment (lanes 1, 4, 6, 8, and 10), on Day 8 prior to therapy (lanes 2, 5, 7, 9, and 11), or at the time of removal from study after 6 weeks (lane 3) were subjected to SDS‐PAGE and blotting for the indicated antigens. Jurkat cells (lane 12) were included in the blot because they were known to be positive for all analytes.[29] The housekeeping protein nucleolin (NCL) served as a loading control.\nCells were isolated from bone marrow or blood samples using Histopaque-1077 (Millipore-Sigma, St. Louis, MO) step gradients. […] Cells for ex vivo drug exposure were resuspended at a concentration of 1 x 10^6 cells/ml in RPMI 1640 medium containing 10% (v/v) heat-inactivated fetal bovine serum, 50 U/ml penicillin G, 50 µg/ml streptomycin, and 1 mM glutamine. […]"}, "[3]": {"tested_on": "mTOR pathway substrates 4EBP1, S6, AKT", "experiment": "Immunoblotting of paired bone marrow samples (pretreatment vs Day 8) from trial patients", "assay_type": "in vivo, human", "source_text": "Bone marrow aspirates harvested prior to treatment and again prior to drug administration on Day 8 ± 2 of treatment from the same patients were shipped overnight to a central laboratory, where marrow mononuclear cells isolated on Ficoll–Hypaque gradients were lysed under denaturing conditions that preserve protein phosphorylations. Paired whole cell lysates were subjected to SDS‐polyacrylamide gel electrophoresis and immunoblotting as described in the Supplementary Method: Data S1.\nCells were isolated from bone marrow or blood samples using Histopaque-1077 (Millipore-Sigma, St. Louis, MO) step gradients. […] Cells for ex vivo drug exposure were resuspended at a concentration of 1 x 10^6 cells/ml in RPMI 1640 medium containing 10% (v/v) heat-inactivated fetal bovine serum, 50 U/ml penicillin G, 50 µg/ml streptomycin, and 1 mM glutamine.\nAfter samples were dialyzed sequentially into 4 M urea and 0.1% (w/v) SDS, lyophilized and reconstituted in SDS-sample buffer consisting of 4 M urea, 2% (w/v) SDS, […] (pH 6.8 at 4 °C), 10 mM EDTA, and 1% (w/v/) 2-mercaptoethanol, aliquots containing […] of total cellular protein were subjected to SDS-PAGE on gels containing 5-20% polyacrylamide gradients, transferred to nitrocellulose, and probed with antibodies as previously described ^34, 35. […]"}}, "note": "“Also recorded” adds a separate entry of the source."}
{"smiles": "CC(C)n1nc(-c2ccc3oc(N)nc3c2)c2c(N)ncnc21", "note": "[sapanisertib]", "values": [{"measurement": "correlation between systemic clearance and sex, age, or total body weight", "setting": "[1]", "result": "no significant correlation"}, {"measurement": "concentration diminishing phosphorylation of 4EBP1 without change in total 4EBP1", "setting": "[2]", "result": "62.5 to 200", "unit": "nM"}, {"measurement": "induction of BIMEL and PUMA in trial samples", "setting": "[3]; five pairs of samples", "result": "minimal in one pair of samples (Patient 2) and absent from the other four pairs"}, {"measurement": "impact on mTOR‐mediated phosphorylation (4EBP1, S6, AKT) in trial samples", "setting": "[3]; pretreatment vs Day 8 trough, five patients", "result": "limited impact; also recorded: little evidence that mTOR‐mediated phosphorylation has been disrupted; also recorded: failed to convincingly demonstrate inhibition"}]}
